Source: patent US20230348426A1, “OXOPYRROLIDINE FPR2 AGONISTS” (Bristol-Myers Squibb Company, priority 2020, published 2023)

Assays:
human FPR2 = human FPR2 (Homo sapiens (Human), UniProt P25090); experiment: FPR2 cyclic adenosine monophosphate (cAMP) assay; format: cell-based; conditions: CHO cells overexpressing human FPR2; forskolin 5 µM; inhibition of cAMP production; read-out: hFPR2 cAMP2 EC50
Procedure, shortened: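 CHO cells overexpressing human FPR2 (2,000/well) incubated 30 min at room temperature with compound (0.020 nM–100 µM, 1% DMSO), 5 µM forskolin and 200 µM IBMX.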

human FPR1 = human FPR1 (Homo sapiens (Human), UniProt P21462); experiment: FPR1 cyclic adenosine monophosphate (cAMP) assay; format: cell-based; conditions: CHO cells overexpressing human FPR1; forskolin 10 µM; inhibition of cAMP production; read-out: hFPR1 cAMP EC50
Procedure, shortened: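 CHO cells overexpressing human FPR1 (4,000 cells/well) stimulated with 10 µM forskolin plus 200 µM IBMX in the presence of compound (0.020 nM–100 µM, 1% DMSO), 30 min at room temperature. Intracellular cAMP measured by HTRF. Inhibition of cAMP production fitted to a 4-parameter logistic equation.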

human FPR2, sequence (P25090 whole entry): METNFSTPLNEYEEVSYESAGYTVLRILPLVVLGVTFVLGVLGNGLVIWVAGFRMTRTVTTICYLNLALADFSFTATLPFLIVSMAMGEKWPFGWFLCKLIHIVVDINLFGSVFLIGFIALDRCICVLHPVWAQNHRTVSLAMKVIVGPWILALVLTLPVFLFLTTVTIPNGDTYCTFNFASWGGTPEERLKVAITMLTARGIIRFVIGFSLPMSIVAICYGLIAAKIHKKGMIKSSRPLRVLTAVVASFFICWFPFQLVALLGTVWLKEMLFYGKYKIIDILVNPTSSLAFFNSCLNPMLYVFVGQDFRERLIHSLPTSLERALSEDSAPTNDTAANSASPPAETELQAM
human FPR1, sequence (P21462 whole entry): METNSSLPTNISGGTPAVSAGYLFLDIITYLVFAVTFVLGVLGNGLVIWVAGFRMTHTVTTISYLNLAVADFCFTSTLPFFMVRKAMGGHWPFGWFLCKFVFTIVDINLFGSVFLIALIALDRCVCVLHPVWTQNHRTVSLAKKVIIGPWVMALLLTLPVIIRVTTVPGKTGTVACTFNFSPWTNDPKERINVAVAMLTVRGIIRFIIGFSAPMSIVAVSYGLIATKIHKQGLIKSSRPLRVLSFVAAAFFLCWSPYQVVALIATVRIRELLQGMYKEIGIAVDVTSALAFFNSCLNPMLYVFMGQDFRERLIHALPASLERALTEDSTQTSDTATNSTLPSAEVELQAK

Row | SMILES | EC50 (human FPR2) [nM] | EC50 (human FPR1) [nM]
1 | CCn1ccc(N2C[C@@H](c3c(F)cc(OC)cc3F)[C@H](NC(=O)c3ccc(OC(F)F)cc3)C2=O)n1 [Example 648] | 0.7 | 4.1
2 | CCn1ccc(N2C[C@@H](c3c(F)cc(OC)cc3F)[C@H](NC(=O)c3ccc(OC(F)(F)F)cc3)C2=O)n1 [Example 649] | 1.3 | 7.8
3 | COc1cc(F)c([C@@H]2CN(c3c(C)ccn(CC(F)F)c3=O)C(=O)[C@H]2NC(=O)c2ccc(Cl)cc2)c(F)c1 [Example 653] | 3.3 | 12
4 | COc1cc(F)c([C@@H]2CN(c3c(C)ccn(C4CCOC4)c3=O)C(=O)[C@H]2NC(=O)c2ccc(Cl)cc2)c(F)c1 (stereo partly shown) [Example 654] | 1 | 12
5 | COc1ccc([C@@H]2CN(c3cccn(CC(O)C(F)(F)F)c3=O)C(=O)[C@H]2NC(=O)c2ccc(OC(F)(F)F)cc2)cc1 (stereo partly shown) [Example 657] | 2 | 45
6 | COc1cc(F)c([C@@H]2CN(c3c(C)ccn(C(F)(F)CO)c3=O)C(=O)[C@H]2NC(=O)c2ccc(OC(F)(F)F)cc2)c(F)c1 [Example 659] | 1 | 1.3
7 | COc1cc(F)c([C@@H]2CN(c3ccn(CC(F)F)n3)C(=O)[C@H]2NC(=O)c2ccc(OC(F)(F)F)cc2)c(F)c1 [Example 662] | 4 | 14
8 | CCn1cc2c(c(N3C[C@@H](c4c(F)cc(OC)cc4F)[C@H](NC(=O)c4ccc(OC(F)F)cc4)C3=O)c1=O)CCCC2 [Example 663] | 1.1 | 1700
9 | COc1cc(F)c([C@@H]2CN(c3ccc4n(c3=O)CCOC4=O)C(=O)[C@H]2NC(=O)c2ccc(OC(F)(F)F)cc2)c(F)c1 [Example 667] | 63 | 7.7
10 | COc1cc(F)c([C@@H]2CN(c3ccc4n(c3=O)CCOC4=O)C(=O)[C@H]2NC(=O)c2ccc(OC(F)F)cc2)c(F)c1 [Example 668] | 8.8 | 210
11 | COc1cc(F)c([C@@H]2CN(c3cccn(CC(O)CO)c3=O)C(=O)[C@H]2NC(=O)c2ccc(OC(F)(F)F)cc2)c(F)c1 (stereo partly shown) [Example 669] | 11 | 270
12 | CCn1nccc(N2C[C@@H](c3ccc(OC)cc3)[C@H](NC(=O)c3ccc(OC(F)F)cc3)C2=O)c1=O [Example 674] | 6.8 | 23
13 | CCn1nccc(N2C[C@@H](c3ccc(OC)cc3)[C@H](NC(=O)c3ccc(OC(F)(F)F)cc3)C2=O)c1=O [Example 675] | 5.5 | 5
14 | COc1cc(F)c([C@@H]2CN(c3nccc(OCC(C)(C)O)c3C(F)(F)F)C(=O)[C@H]2NC(=O)c2ccc(Cl)cc2)c(F)c1 [Example 676] | 13 | 295
15 | COc1cc(F)c([C@@H]2CN(c3cccn(CC(O)CO)c3=O)C(=O)[C@H]2NC(=O)c2ccc(Cl)cc2)c(F)c1 (stereo partly shown) [Example 677] | 5.3 | 230
16 | COc1cc(F)c([C@@H]2CN(c3cccn(CC(O)CO)c3=O)C(=O)[C@H]2NC(=O)c2ccc(OC(F)F)cc2)c(F)c1 (stereo partly shown) [Example 678] | 11 | 92

Row | SMILES | EC50 (human FPR2) [nM] | EC50 (human FPR1) [nM]
17 | COc1cc(F)c([C@@H]2CN(c3cccn(CC(O)CO)c3=O)C(=O)[C@H]2NC(=O)c2ccc(OC(F)F)cc2)c(F)c1 (stereo partly shown) [Example 681] | 10 | 1000
18 | COc1ccc([C@@H]2CN(c3c(C)ccn(C4CCC4)c3=O)C(=O)[C@H]2NC(=O)c2ccc(OC(F)(F)F)cc2)cc1 [Example 687] | 1.8 | 0.28
19 | COc1ccc([C@@H]2CN(c3c(C)ccn(C4CCC4)c3=O)C(=O)[C@H]2NC(=O)c2ccc(OC(F)(F)F)cc2)c(F)c1 [Example 688] | 12 | 1.5
20 | COc1ccc([C@@H]2CN(c3c(C)ccn(C4CCC4)c3=O)C(=O)[C@H]2NC(=O)c2ccc(OC(F)F)cc2)c(F)c1 [Example 689] | 4.5 | 1.5
21 | COc1ccc([C@@H]2CN(c3ccnn(CC(F)F)c3=O)C(=O)[C@H]2NC(=O)c2ccc(Cl)cc2)cc1 [Example 690] | 11 | 24
22 | COc1ccc([C@@H]2CN(c3ccnn(CC(F)F)c3=O)C(=O)[C@H]2NC(=O)c2ccc(OC(F)(F)F)cc2)cc1 [Example 692] | 3.8 | 2.8
23 | COc1cc(F)c([C@@H]2CN(c3c(C)ccn(CC4CCOC4)c3=O)C(=O)[C@H]2NC(=O)c2ccc(OC(F)F)cc2)c(F)c1 (stereo partly shown) [Example 693] | 2 | 2.5
24 | COc1cc(F)c([C@@H]2CN(c3c(C)ccn(CC4CCOC4)c3=O)C(=O)[C@H]2NC(=O)c2ccc(OC(F)F)cc2)c(F)c1 (stereo partly shown) [Example 695] | 3.5 | 4
25 | COc1ccc([C@@H]2CN(c3ccnn(CC(F)F)c3=O)C(=O)[C@H]2NC(=O)c2ccc(OC(F)(F)F)cc2)c(F)c1 [Example 696] | 7.2 | 8.3
26 | COc1cc(F)c([C@@H]2CN(c3c(C)ccn(CC4CCOC4)c3=O)C(=O)[C@H]2NC(=O)c2ccc(OC(F)(F)F)cc2)c(F)c1 (stereo partly shown) [Example 697] | 3.6 | 6.7
27 | COc1ccc([C@@H]2CN(c3c(C)ccn(CC4CCOCC4)c3=O)C(=O)[C@H]2NC(=O)c2ccc(OC(F)F)cc2)c(F)c1 [Example 698] | 5.7 | 2.5
28 | COc1cc(F)c([C@@H]2CN(c3c(C)ccn(C4CCS(=O)(=O)C4)c3=O)C(=O)[C@H]2NC(=O)c2ccc(OC(F)F)cc2)c(F)c1 (stereo partly shown) [Example 701] | 12 | 27
29 | COc1cc(F)c([C@@H]2CN(c3c(C)ccn(C4CCS(=O)(=O)C4)c3=O)C(=O)[C@H]2NC(=O)c2ccc(OC(F)(F)F)cc2)c(F)c1 (stereo partly shown) [Example 702] | 8.5 | 7.5
30 | COc1ccc([C@@H]2CN(c3c(C)ccn(C4CCOC4)c3=O)C(=O)[C@H]2NC(=O)c2ccc(OC(F)(F)F)cc2)cc1 (stereo partly shown) [Example 704] | 2.4 | 1
31 | COCC(CO)n1cccc(N2C[C@@H](c3ccc(OC)cc3F)[C@H](NC(=O)c3ccc(OC(F)(F)F)cc3)C2=O)c1=O (stereo partly shown) [Example 705] | 0.6 | 3.9

The next lines start with the values.

Row | EC50 (human FPR2) [nM] | EC50 (human FPR1) [nM] | SMILES
32 | 1.5 | 22 | CCn1ccc(N2C[C@@H](c3c(F)cc(OC)cc3F)[C@H](NC(=O)c3ccc(Cl)cc3)C2=O)n1 [Example 647]
33 | 11 | 1700 | COCCn1ccnc1N1C[C@@H](c2c(F)cc(OC)cc2F)[C@H](NC(=O)c2ccc(Cl)cc2)C1=O [Example 650]
34 | 3.5 | 780 | COCCn1ccnc1N1C[C@@H](c2c(F)cc(OC)cc2F)[C@H](NC(=O)c2ccc(OC(F)F)cc2)C1=O [Example 651]
35 | 7.2 | 700 | COCCn1ccnc1N1C[C@@H](c2c(F)cc(OC)cc2F)[C@H](NC(=O)c2ccc(OC(F)(F)F)cc2)C1=O [Example 652]
36 | 3.8 | 1.2 | COc1cc(F)c([C@@H]2CN(c3c(C)ccn(C4CCOC4)c3=O)C(=O)[C@H]2NC(=O)c2ccc(OC(F)(F)F)cc2)c(F)c1 (stereo partly shown) [Example 655]
37 | 2.5 | 13 | COc1ccc([C@@H]2CN(c3cccn(CC(O)C(F)(F)F)c3=O)C(=O)[C@H]2NC(=O)c2ccc(OC(F)(F)F)cc2)cc1 (stereo partly shown) [Example 656]
38 | 3.4 | 1.7 | COCCn1ncc(C)c(N2C[C@@H](c3c(F)cc(OC)cc3F)[C@H](NC(=O)c3ccc(OC(F)F)cc3)C2=O)c1=O [Example 658]
39 | 1.2 | 110 | COc1cc(F)c([C@@H]2CN(c3ccn(CC(F)F)n3)C(=O)[C@H]2NC(=O)c2ccc(OC(F)F)cc2)c(F)c1 [Example 661]
40 | 8.7 | 190 | CCn1cc2c(c(N3C[C@@H](c4c(F)cc(OC)cc4F)[C@@H](NC(=O)c4ccc(OC(F)F)cc4)C3=O)c1=O)CCCC2 [Example 664]
41 | < 10 | 7.4 | COc1cc(F)c([C@@H]2CN(c3c(C)ccn(CC4CNC(=O)O4)c3=O)C(=O)[C@H]2NC(=O)c2ccc(OC(F)F)cc2)c(F)c1 (stereo partly shown) [Example 665]
42 | 7.9 | 5 | COc1ccc([C@@H]2CN(c3ccnn(CCC(F)(F)F)c3=O)C(=O)[C@H]2NC(=O)c2ccc(OC(F)F)cc2)cc1 [Example 672]
43 | 6 | 28 | COc1cc(F)c([C@@H]2CN(c3cccn(CC(O)CO)c3=O)C(=O)[C@H]2NC(=O)c2ccc(OC(F)(F)F)cc2)c(F)c1 (stereo partly shown) [Example 679]
44 | 2.8 | 780 | COc1cc(F)c([C@@H]2CN(c3cccn(CC(O)CO)c3=O)C(=O)[C@H]2NC(=O)c2ccc(Cl)cc2)c(F)c1 (stereo partly shown) [Example 680]
45 | 15 | 1 | COc1cc(F)c([C@@H]2CN(c3c(C)ccn(CC(O)C4CC4)c3=O)C(=O)[C@H]2NC(=O)c2ccc(OC(F)F)cc2)c(F)c1 (stereo partly shown) [Example 682]
46 | 14 | 1.4 | COc1cc(F)c([C@@H]2CN(c3c(C)ccn(CC(O)C4CC4)c3=O)C(=O)[C@H]2NC(=O)c2ccc(OC(F)F)cc2)c(F)c1 (stereo partly shown) [Example 685]
47 | 11 | 11 | COc1ccc([C@@H]2CN(c3ccnn(CC(F)F)c3=O)C(=O)[C@H]2NC(=O)c2ccc(OC(F)F)cc2)cc1 [Example 691]
48 | 6.6 | 3 | COc1ccc([C@@H]2CN(c3c(C)ccn(CC4CCOCC4)c3=O)C(=O)[C@H]2NC(=O)c2ccc(OC(F)F)cc2)cc1 [Example 699]
49 | 3 | 0.67 | COc1ccc([C@@H]2CN(c3c(C)ccn(CC4CCOCC4)c3=O)C(=O)[C@H]2NC(=O)c2ccc(OC(F)(F)F)cc2)cc1 [Example 700]
50 | 57 | 99 | COc1cc(F)c([C@@H]2CN(c3ccc(C(=O)O)n(CCO)c3=O)C(=O)[C@H]2NC(=O)c2ccc(OC(F)(F)F)cc2)c(F)c1 [Example 703]
